Results as given in US20090012049A1, “Use of an Unsaponifiable Extract of Plant Pulp in the Treatment of Skin Ageing” (priority 2006, published 2009).
Where “and” joins values, the source holds several entries; their conditions need not be identical. Equal entries are not always repeated.

Experiments:
[1] = test system: murine fibroblast line L929; assay: 3D (DNA Damage Detection) test after H2O2 stress; type: cell-based; conditions: 3 μg/ml, L929 pre-treated 16 hours, H2O2 100 μM 30 minutes; for % DNA protection: basal control 100%, H2O2 stressed 0%
From the text: They decided to generate the lesions to DNA by means of H2O2 stress and to analyze indirectly the damage thereby caused, by analyzing the repair reaction. For that purpose, a kit referred to as the 3D (standing for “DNA Damage Detection”) test was used. This biochemical test mimics, in vitro, the repair reaction by means of excision (Salles B. et al Anal. Biochem. 1995; 232: 37-42 and Salles B. et al Biochimie 1999; 81: 53-58). The 3D test is based on the repairing of DNA lesions using purified human cell extracts.
The products were assessed using the murine fibroblast line L929. The cells are pre-treated with the products (Table III) for 16 hours and are then stimulated with H2O2 (Hydrogen Peroxide 3%—Ref. GIFRER—Laboratoire Gifrer Barbezat) at 100 μM for 30 minutes.
The principle is as follows: After damaging the genomic DNA (oxidative treatment), the cells are lysed. The lysate is deposited on a microplate coated with polylysine: • 1—Adsorption of the DNA • 2—Incubation of the DNA with a protein extract (enriched with repair enzymes) and a pool of nucleotides wherein one nucleotide is labeled with biotin (dUTP-Biotin)—Repair of the lesions and incorporation of the “dUTP-Biotin” labeled nucleotides in the DNA. • 3—Incubation with an “Avidin-Peroxidase” enzyme complex—Recognition by the avidin of the incorporated dUTP-Biotin. • 4—Addition of a luminescent peroxidase substrate and quantification of the emitted signal, which is proportional to the number of repaired lesions.
The test performance protocol is followed in accordance with the instructions of the kit supplier (Solyscel 3D Test—Ref: SFRIDN013— AES Laboratoire). At the end of the reaction, the plate is read in a luminometer (MITHRAS LB940-BERTHOLD).
The ratio below allows the percentage protection against the causation of lesions to DNA by oxidative stress to be calculated for each concentration of product tested (the Intensity of Luminescence—or IL—is an expression of the quantity of DNA lesions).
The values indicated in this Table are percentages of inhibition (or % protection) of lesions to DNA following exogenous oxidative stress, compared to “basal control” cells (100%) and “H2O2 stressed” cells (0%).

[2] = at a dose lower than the triterpene fraction A devoid of erythrodiol; cited from earlier work
[3] = test system: murine fibroblast line L929; assay: TBARS test: lipid peroxidation after H2O2-Fe2+/Fe3+ stress; type: cell-based; conditions: L929 pre-treated 16 hours, H2O2-Fe2+/Fe3+ 1 hour
Protocol: In order to assess membrane degradation, the authors of the invention have measured lipid peroxidation by means of an in vitro assay of complexes formed between the products of lipid oxidation and thiobarbituric acid. These complexes are called TBARS (standing for “Thiobarbituric Acid Reactive Substances”) and give their name to the test: the TBARS Test.
In order to mimic chemical oxidative stress, the fibroblast line L929 was treated with a complex composed of hydrogen peroxide (H2O2) and iron (Fe^2+/Fe^3+), accordingly reproducing Fenton's reaction, a source of OFRs and, more particularly, the free hydroxyl radical (OH^∘) (Vessey D. A. et al J. Invest Dermatol. 1992; 99: 859-63): H2O2+Fe^2+→OH^∘+OH^−+Fe^3+.
The products were assessed using the murine fibroblast line L929. The cells are pre-treated with the various concentrations of products (Table I) for 16 hours and then stimulated with the H2O2—Fe^2+/Fe^3+ complex for 1 hour. The LK0304 batch of unsaponifiable extract of pulp of fruit of the argan tree was prepared in accordance with Example 2.
The peroxidation of membrane lipids is analyzed by TBARS measurement (according to Morliére P. et al Biochim. Biophys. Acta. 1991; 1084: 261-268).
In an acid medium, at 95° C., complexes referred to as TBARS (standing for “ThioBarbituric Acid Reactive Substances”) are formed between the lipid oxidation products (malondialdehyde or MDA) and thiobarbituric acid (TBA), which can be fluorescence-assayed relative to a MDA standard series. The TBARS assay value is then expressed in pmol/μg of proteins. The proteins and TBARS are assayed in the intracellular medium.
Starting from the calculation of the TBARS in pmol/μg of proteins, the protective efficacy of the various products against oxidation of the lipid membranes was calculated as follows.

[4] = compared to the triterpene fraction; cited from earlier work

Molecule	% lesions to DNA [1]	Intensity of luminescence [1]	% DNA protection [1]	% DNA protection ([1]; listed as erythrodiol)	Toxicity [2]	Protection of membrane lipids in % Mean ([3]; 0.3 μg/ml)	Protection of membrane lipids in % Mean ([3]; 1 μg/ml)	Benefit with respect to UVA and UVB [4]	Protection of membrane lipids in % Mean ([3]; 400 μg/ml-928.7 μM)	Protection of membrane lipids in % Mean ([3]; 400 μg/ml-928.7 μM, listed as Vitamin E)
CC1(C)CC[C@]2(CO)CC[C@]3(C)C(=CC[C@@H]4[C@@]5(C)CC[C@H](O)C(C)(C)[C@@H]5CC[C@]43C)[C@@H]2C1 [Erythrodiol]	1%	5520	99%	the most active	toxic	33% and 33.75%	38.43%	only mediocre benefit	–	–
C=C(C)[C@@H]1CC[C@]2(C)CC[C@]3(C)[C@H](CC[C@@H]4[C@@]5(C)CC[C@H](O)C(C)(C)[C@@H]5CC[C@]43C)[C@@H]12 [Lupeol]	58.2%	9020	41.8%	–	–	–	–	–	–	–
C[C@H]1[C@H](C)CC[C@]2(C)CC[C@]3(C)C(=CC[C@@H]4[C@@]5(C)CC[C@H](O)C(C)(C)[C@@H]5CC[C@]43C)[C@H]12 [α-Amyrine]	52.4%	8663.3	47.6%	–	–	–	–	–	–	–
CC1(C)CC[C@]2(C)CC[C@]3(C)C(=CC[C@@H]4[C@@]5(C)CC[C@H](O)C(C)(C)[C@@H]5CC[C@]43C)[C@@H]2C1 [β-Amyrine]	125.4%	13133.3	−25.4%	–	–	–	–	–	–	–
Vitamin E [Vit E]	–	–	–	–	–	–	–	–	56.62%	about 56%
